Where two headings read alike, the source gives them in different places.
Key:
BACE = BACE (Homo sapiens, UniProt P56817); test: In vitro enzymatic BACE FRET assay; format: biochemical; settings: average IC50, enzyme assay; read-out: BACE 1 FRET assay
Method: In Vitro Enzymatic BACE FRET (Fluorescence Resonance Energy Transfer) Assay (Enzyme Assay Data in the Example Table I) The assay buffer used in this screen is 0.05 M acetate, pH 4.2, 10% DMSO final, 100 uM genapol (which is a nonionic detergent, below its Critical Micelle Concentration). The beta secretase enzyme (0.2 nM) is pre-incubated for one hour with inhibitors, typically in about 1 uL of DMSO according to a serial dilution, are added thereto. This assay is effectively started by the addition of FRET substrate (50 nM) and the combination is incubated for one hour. The FRET assay is terminated with by addition of Tris buffer, which raises the pH to neutrality, and the fluorescence is determined. The FRET substrate is a peptide with commercially available fluorophore and quencher, on opposite sides of the BACE cleavage site. Proteolytic cleavage of the FRET substrate releases quenching of fluorescence (excitation 488 nm and emission […]).

Aβ40 = test: In vitro BACE cell-based assay (Aβ40 sandwich ELISA, cells stably expressing APP)
Method: In Vitro BACE Cell-Based Assay […] Cells stably expressing Amyloid Precursor Protein (APP) were plated at a density of 40K cells/well in 96 well plates (Costar). The cells were cultivated for 24 hours at 37° C. and 5% CO2 in DMEM supplemented with 10% FBS. The test compounds were then added to cells in 10-point dose response concentrations with the starting concentration being either 100 μM or 10 μM. The compounds were diluted from stock solutions in DMSO and the final DMSO concentration of the test compounds on cells was 0.1%. […] The IC50 of the compound was calculated from the percent of control or percent inhibition of Aβ40 as a function of the concentration of the test compound. The sandwich ELISA to detect Aβ40 was performed in 96 well microtiter plates, which were pre-treated with goat anti-rabbit IgG (Pierce). […] The optimal concentration for the pAb40 antibody was 3 μg/ml in Superblock/TBS (Pierce) that was supplemented with 0.05% Tween 20 (Sigma). […] Cellular supernatants were incubated with the capture antibody for 3 h at 4° C., followed by 3 wash steps in TBS-tween (0.05%). The detecting antibody incubation was for 2 h at 4° C., again followed by the wash steps as described previously. The final readout of the ELISA is Time-Resolved Fluorescence (counts per minute) using Delfia reagents Streptavidin-Europium and Enhancement solutions (Perkin Elmer) and the Victor 2 multilabel counter (Perkin Elmer).

[1] = Homo sapiens, HEK293, average IC50, cell assay, HEK cells
[2] = Homo sapiens, HEK293, average IC50, read-out: HEK cell assay

BACE, sequence (P56817 46-501, species assumed): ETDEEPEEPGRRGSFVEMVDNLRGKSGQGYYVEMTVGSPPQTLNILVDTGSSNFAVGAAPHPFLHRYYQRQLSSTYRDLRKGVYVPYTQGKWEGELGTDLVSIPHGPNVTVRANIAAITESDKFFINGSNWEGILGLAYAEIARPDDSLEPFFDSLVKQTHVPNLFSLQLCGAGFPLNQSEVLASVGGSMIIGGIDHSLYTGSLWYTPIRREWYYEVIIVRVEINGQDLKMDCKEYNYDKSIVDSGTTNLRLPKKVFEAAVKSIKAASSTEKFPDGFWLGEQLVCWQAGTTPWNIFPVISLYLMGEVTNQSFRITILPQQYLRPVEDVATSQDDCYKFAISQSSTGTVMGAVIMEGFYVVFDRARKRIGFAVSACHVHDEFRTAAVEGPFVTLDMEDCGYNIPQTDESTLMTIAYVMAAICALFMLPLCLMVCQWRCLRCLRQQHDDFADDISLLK

IC50 (BACE)	IC50 (Aβ40; [1])	IC50 (Aβ40; [2])	IC50 (Aβ40; average IC50, read-out: HEK cell assay)	IC50 (Aβ40; average IC50, cell assay, HEK cells)	Structure (SMILES)
0.4 nM	2.4 nM				NC1=N[C@@]2(COC1)c1cc(-c3cccnc3F)ccc1Oc1c(F)cc(C3CCOCC3)cc12 [Example 42, (S)-4′-fluoro-7′-(2-fluoropyridin-3-yl)-2′-(tetrahydro-2H-pyran-4-yl)-2,6-dihydrospiro[[1,4]oxazine-3,9′-xanthen]-5-amine]
0.6 nM	0.8 nM				NC1=N[C@@]2(COC1)c1cc(-c3cccnc3)ccc1Oc1cnc(-c3ccnc(F)c3)cc12 [compound 116]
2820 nM	579 nM				NC1=N[C@]2(CCO1)c1cc(-c3cccnc3F)ccc1Oc1cnc(C3=CCOCC3)cc12 [compound 109]
2.5 nM		4.8 nM			CC(C)(C)COc1cnc2c(c1)[C@]1(CCOC(N)=N1)c1cc(-c3cccnc3F)ccc1O2 [Example 62, (S)-7-(2-fluoropyridin-3-yl)-3-(neopentyloxy)-5′,6′-dihydrospiro[chromeno[2,3-b]pyridine-5,4′-[1,3]oxazin]-2′-amine]
1.4 nM	1.2 nM				NC1=N[C@@]2(COC1)c1cc(-c3cccnc3F)ccc1Oc1ncc(N3CC[C@@H](F)C3)cc12 [Example 68, (S)-7-(2-fluoropyridin-3-yl)-3-((R)-3-fluoropyrrolidin-1-yl)-2′,6′-dihydrospiro[chromeno[2,3-b]pyridine-5,3′-[1,4]oxazin]-5′-amine]
2.5 nM		4.8 nM			CC1(COc2cc(F)c3c(c2)[C@]2(CCSC(N)=N2)c2cc(-c4cccnc4F)ccc2O3)COC1 [compound 197]
2.3 nM		3.2 nM			CC1(COc2cc(F)c3c(c2)[C@]2(CCOC(N)=N2)c2cc(-c4cccnc4F)ccc2O3)COC1 [compound 180]
0.7 nM	12.2 nM				NC1=N[C@]2(COC1)c1cc(C3=CCCOC3)ccc1Oc1ccc(-c3cccnc3F)cc12 [compound 130]
110 nM	64.1 nM				CC(C)(F)COc1cc(F)c2c(c1)[C@@]1(COCC(N)=N1)c1cc(-c3cccnc3F)ccc1O2 [37B]
11.5 nM			21.3 nM		NC1=N[C@]2(CO[C@@H]1C1CCOCC1)c1cc(-c3cccnc3F)ccc1Oc1cnc(Cl)cc12 (racemic) [compound 207]
38.3 nM		93 nM			COc1cc(F)c2c(c1)[C@]1(CCOC(N)=N1)c1cc(-c3cccnc3F)ccc1O2 [compound 175, (4S)-4′-fluoro-7′-(2-fluoro-3-pyridinyl)-2′-methoxy-5,6-dihydrospiro[1,3-oxazine-4,9′-xanthen]-2-amine]
0.8 nM		1.4 nM			N#Cc1cccc(-c2ccc3c(c2)[C@@]2(CCOC(N)=N2)c2cc(C4=CCCOC4)nc(F)c2O3)c1 [compound 223]
3.3 nM		4.7 nM			NC1=N[C@@]2(CCS1)c1cc(-c3cccnc3F)ccc1Oc1cnc(C3=CCOCC3)cc12 [compound 193]
19.6 nM		62.5 nM			CC(C)(C)COc1cc2c(cn1)Oc1ccc(Br)cc1[C@@]21COCC(N)=N1 [compound 251]
0.8 nM		0.5 nM			NC1=N[C@@]2(CCO1)c1cc(-c3cncc(F)c3)ccc1Oc1c2cc(C2=CCCOC2)nc1F [compound 236]
13 nM	10.3 nM				NC1=NC2(CCO1)c1cc(-c3cccnc3)ccc1Oc1cnc(-c3cccnc3)cc12 (stereo not shown) [compound 150, 3,7-di-3-pyridinyl-5′,6′-dihydrospiro[chromeno[2,3-c]pyridine-5,4′-[1,3]oxazin]-2′-amine]
4.3 nM		25.5 nM			CCOc1cc2c(cn1)Oc1ccc(-c3cccc(F)c3)cc1[C@@]21COCC(N)=N1 [compound 256]
149 nM		127 nM			NC1=N[C@]2(CCO1)c1cc(-c3cncc(F)c3)ccc1Oc1c2cc(C2=CCOCC2)nc1F [compound 229]
39.7 nM	101 nM				NC1=N[C@@]2(COC1)c1cc(-c3cccnc3F)ccc1Oc1c(F)cc(N3CC[C@@H](F)C3)cc12 [compound 85]
2 nM	1.3 nM				CC1(C#Cc2cnc3c(c2)[C@]2(COCC(N)=N2)c2cc(-c4cccnc4F)ccc2O3)COC1 [compound 87]
257 nM	635 nM				NC1=NC2(CCS1)c1cc(-c3cncnc3)ccc1Oc1ccc(-c3cncnc3)cc12 [compound 98]
6.8 nM	5.1 nM				COc1cc2c(cn1)Oc1ccc(-c3cccnc3)cc1[C@@]21COCC(N)=N1 [compound 124]

IC50 (BACE)	IC50 (Aβ40; [1])	IC50 (Aβ40; [2])	IC50 (Aβ40; average IC50, read-out: HEK cell assay)	IC50 (Aβ40; average IC50, cell assay, HEK cells)	Structure (SMILES)
10.5 nM	19.3 nM				CC(C)(C)COc1cc2c(cn1)Oc1ccc(N3CCC(F)(F)CC3)cc1[C@@]21COCC(N)=N1 [Example 44, (S)-7-(4,4-difluoropiperidin-1-yl)-3-(neopentyloxy)-2′,6′-dihydrospiro[chromeno[2,3-c]pyridine-5,3′-[1,4]oxazin]-5′-amine]
2390 nM		3280 nM			NC1=N[C@]2(CCS1)c1cc(-c3cccnc3F)ccc1Oc1cnc(-c3ccnc(F)c3)cc12 [compound 189]
11.6 nM		21.7 nM			NC1=N[C@@]2(CCO1)c1cc(-c3cccnc3F)ccc1Oc1ncc(C3=CCCOC3)cc12 [compound 268]
29.9 nM		159 nM			COc1cc(F)c2c(c1)[C@]1(CCSC(N)=N1)c1cc(-c3cccnc3F)ccc1O2 [compound 187]
3.9 nM	5.8 nM				NC1=N[C@@]2(COC1)c1cc(-c3cccnc3F)ccc1Oc1cnc([C@H]3CCCOC3)cc12 [compound 80]
2.7 nM		4.2 nM			CC(C)Oc1cc2c(cn1)Oc1ccc(-c3cccnc3)cc1[C@@]21COCC(N)=N1 [compound 258]
52.4 nM	268 nM				NC1=N[C@]2(COC1)c1cc(-c3cccnc3F)ccc1Oc1cnc(-c3ccnc(F)c3)cc12 [compound 70]
1370 nM		1160 nM			CC(C)(F)COc1cc(F)c2c(c1)[C@@]1(CCOC(N)=N1)c1cc(-c3cccnc3F)ccc1O2 [compound 181]
43 nM	121 nM				CC1(COc2cc(F)c3c(c2)[C@@]2(COCC(N)=N2)c2cc(-c4cccnc4F)ccc2O3)COC1 [compound 82]
17.3 nM	109 nM				NC1=N[C@@]2(COC1)c1cc(Br)ccc1Oc1c2cc(N2CCC(F)(F)CC2)nc1F [compound 128]
4.6 nM	4.1 nM				NC1=N[C@@]2(CCO1)c1cc(-c3cccnc3F)ccc1Oc1cnc(-c3cccnc3)cc12 [compound 148]
132 nM	132 nM				NC1=N[C@]2(CCO1)c1cc(-c3cccnc3F)ccc1Oc1cnc(-c3cccnc3)cc12 [compound 147]
0.3 nM	0.4 nM				NC1=N[C@@]2(COC1)c1cc(-c3cncnc3)ccc1Oc1c(F)cc(C3=CCCOC3)cc12 [compound 133]
5190 nM		2820 nM			NC1=N[C@]2(CCO1)c1cc(-c3cccnc3F)ccc1Oc1c(F)cc(N3CCOCC3)cc12 [compound 179]
2.7 nM		12.3 nM			NC1=N[C@@]2(CCS1)c1cc(-c3cccnc3F)ccc1Oc1c(F)cc(C3=CCOCC3)cc12 [compound 200]
941 nM	393 nM				CC(C)(F)COc1cc(F)c2c(c1)[C@@]1(CCOC(N)=N1)c1cc(-c3cccnc3)ccc1O2 [compound 158]
1740 nM	1900 nM				NC1=N[C@]2(CCO1)c1cc(-c3cccnc3F)ccc1Oc1c2cc(-c2cccnc2F)nc1F [compound 104]
0.7 nM		3 nM			N#Cc1cccc(-c2ccc3c(c2)[C@@]2(CCOC(N)=N2)c2cc(-c4ccnc(F)c4)nc(F)c2O3)c1 [compound 225]
2.2 nM				6.9 nM	NC1=N[C@]2(CCO1)c1cc(-c3cccnc3F)ccc1Oc1c2cc(-c2ccnc(F)c2)nc1F (racemic) [compound 103]
1580 nM		108 nM			N#Cc1cccc(-c2ccc3c(c2)[C@]2(CCOC(N)=N2)c2cc(C4=CCOCC4)nc(F)c2O3)c1 [compound 233]
147 nM		110 nM			NC1=N[C@]2(CCO1)c1cc(-c3cccnc3F)ccc1Oc1c(F)cc(-c3cccnc3)cc12 [compound 167]
17.4 nM	1.2 nM				CC(C)(C)COc1cc2c(cn1)Oc1ccc(-c3cccnc3F)cc1[C@@]21COCC(NC=O)=N1 [Example 43, (S)—N-(7-(2-fluoropyridin-3-yl)-3-(neopentyloxy)-2′,6′-dihydrospiro[chromeno[2,3-c]pyridine-5,3′-[1,4]oxazine]-5′-yl)formamide]
